Experimental data: US20140162876A1, “Fungicidal substituted 1--1H-[1,2,4]triazole compounds” (BASF SE, priority 2011, published 2014)

Assays:
Phakopsora pachyrhizi = experiment: G4 Protective control of soy bean rust on soy beans caused by Phakopsora pachyrhizi (Phakpa P2), green house; type: in vivo; details: soy bean sprayed 2 days before inoculation, % diseased leaf area, untreated control 90
Septoria tritici [1] = experiment: G2 Curative control of leaf blotch on wheat caused by Septoria tritici (Septtr K7), green house; type: in vivo; details: wheat sprayed 7 days after inoculation (curative), % diseased leaf area, untreated control 80
Experimental: The spray solutions were prepared in several steps: The stock solution were prepared: a mixture of acetone and/or dimethylsulfoxide and the wetting agent/emulsifier Wettol, which is based on ethoxylated alkylphenoles, in a relation (volume) solvent-emulsifier of 99 to 1 was added to 25 mg of the compound to give a total of 5 ml. Water was then added to total volume of 100 ml. This stock solution was diluted with the described solvent-emulsifier-water mixture to the given concentration. G2 Curative Control of Leaf Blotch on Wheat Caused by Septoria tritici (Septtr K7) Leaves of pot-grown wheat seedling were inoculated with an aqueous spore suspension of Septoria tritici. Then the trial plants were immediately transferred to a humid chamber at 18-22° C. and a relative humidity close to 100%. […] Seven days after inoculation the plants were sprayed to run-off with an aqueous suspension of the active compound or their mixture, prepared as described. […] After 4 weeks the extent of fungal attack on the leaves was visually assessed as % diseased leaf area.

Alternaria solani = experiment: M3 Activity against early blight caused by Alternaria solani (Alteso), microtest; type: cell-based; details: microtiter plate, 7 days after inoculation
Botrytis cinerea = experiment: M2 Activity against the grey mold Botrytis cinerea in the microtiterplate test (Botrci); type: cell-based; details: microtiter plate, 7 days after inoculation
Septoria tritici [2] = experiment: G1 Preventative control of leaf blotch on wheat caused by Septoria tritici (Septtr P7), green house; type: in vivo; details: wheat sprayed 7 days before inoculation, % diseased leaf area, untreated control 80
Experimental: The spray solutions were prepared in several steps: The stock solution were prepared: a mixture of acetone and/or dimethylsulfoxide and the wetting agent/emulsifier Wettol, which is based on ethoxylated alkylphenoles, in a relation (volume) solvent-emulsifier of 99 to 1 was added to 25 mg of the compound to give a total of 5 ml. Water was then added to total volume of 100 ml. This stock solution was diluted with the described solvent-emulsifier-water mixture to the given concentration. G1 Preventative Control of Leaf Blotch on Wheat Caused by Septoria tritici (Septtr P7) Leaves of pot-grown wheat seedling were sprayed to run-off with an aqueous suspension of the active compound or their mixture, prepared as described. The plants were allowed to air-dry. Seven days later the plants were inoculated with an aqueous spore suspension of Septoria tritici. Then the trial plants were immediately transferred to a humid chamber at 18-22° C. and a relative humidity close to 100%. […] After 4 weeks the extent of fungal attack on the leaves was visually assessed as % diseased leaf area.

Septoria tritici [3] = experiment: M4 Activity against leaf blotch on wheat caused by Septoria tritici (Septtr), microtest; type: cell-based; details: microtiter plate, 7 days after inoculation
Pyricularia oryzae = type: cell-based; details: microtiter plate, 7 days after inoculation

| Structure (SMILES) | Disease (%) at 16 ppm Phakpa P2 (Phakopsora pachyrhizi) | Disease (%) at 250 ppm Phakpa P2 (Phakopsora pachyrhizi) | Disease (%) at 250 ppm Septtr K7 (Septoria tritici [1]) | Disease (%) at 0.125 ppm Alteso (Alternaria solani) | Disease (%) at 2 ppm Botrci (Botrytis cinerea) | Disease (%) at 16 ppm Septtr P7 (Septoria tritici [2]) | Disease (%) at 0.032 ppm Septtr (Septoria tritici [3]) | Disease (%) at 0.125 ppm Pyrior (Pyricularia oryzae) |
| --- | --- | --- | --- | --- | --- | --- | --- | --- |
| CCOC(CC)(Cn1cncn1)c1ccc(Oc2ccc(Cl)cc2)cc1Cl (stereo not shown) [Compound I-2, 1-[2-[2-chloro-4-(4-chlorophenoxy)phenyl]-2-ethoxy-butyl]-1,2,4-triazole] | 40% | – | – | – | – | – | – | – |
| CCC(Cn1cncn1)(OC)c1ccc(Oc2ccc(Cl)cc2)cc1Cl (stereo not shown) | 80% | – | – | – | – | – | – | – |
| CCOC(Cn1cncn1)c1ccc(Oc2ccc(Cl)cc2)cc1Cl (stereo not shown) [drawing 21] | – | 30% | 40% | – | – | – | – | – |
| CCOC(C)(Cn1cncn1)c1ccc(Oc2ccc(Cl)cc2)cc1Cl (stereo not shown) [Compound I-1] | – | 5% | 10% | 25% | 0% | 40% | 5% | 50% |
| CCOC(Cn1cncn1)c1ccc(Oc2ccc(Cl)cc2)cc1Cl (stereo not shown) [drawing 24] | – | – | – | 44% | 24% | – | 31% | 84% |
| COC(C)(Cn1cncn1)c1ccc(Oc2ccc(Cl)cc2)cc1Cl (stereo not shown) | – | – | – | – | – | 80% | – | – |
